The source of these data is patent US5037822A, “1-arylsulphonyl-2-pyrrolidinethione or 1-arylsulphonyl-2-piperidinethione derivatives, process for the preparation thereof their application as medicinal products and compositions containing them” (Roussel-Uclaf, priority 1989, dated 1991).

For assay [1], the system named is isolated guinea pig ileum. Nature of the assay: Agonist action on isolated guinea pig ileum. The class given is cell-based. The following applies: Cavia porcellus, read-out: Agonist action pD2 (converted). As for the experimental part:
(§1) The interaction of the compounds with different receptors was assessed on isolated guinea pig ileum according to the following method.
(§2) Guinea pig ileum segments measuring 2.5-3 cm were washed and immediately suspended in a bath containing 10 ml of Tyrode's solution at 37° C. aerated with a mixture of oxygen (95%) and carbon dioxide (5%). After a stabilization period of at least 30 minutes, the contractions were recorded, maintaining the preparation under constant tension of 1 g using a gauge connected to a polygraph. The agonist action was assessed by leaving the compound in contact with the isolated tissue for a period necessary for expressing the maximal contraction; the preparation was then washed with Tyrode's solution. The next dose was added to the bath only after the preparation had returned to its base line. As a reference product, arecoline was employed. The antagonist action was assessed on contractions induced by acetylchloine (1×10^-6 M), histamine (1×10^-5 M) and barium chloride (2×10^-4 M). Atropine, diphenhydramine and papaverine were employed as reference products. The contact time before adding the agonist was one minute.
(§3) For each compound, the dose-response curves are obtained with 4 to 6 different concentrations and 3 to 5 independent tests. The agonist activity is expressed by pD2 (negative logarithm of the dose which produces 50% of the maximum effect). The antagonist activity is expressed by IC50 (concentration inhibiting 50% of the maximal response).

Assay [2] relates to isolated guinea pig ileum, contractions induced by acetylcholine. Nature of the assay: Antagonist action on acetylcholine-induced contractions of isolated guinea pig ileum. Conditions: Cavia porcellus, read-out: Antagonist to ACh, IC50. The format is cell-based. As for the experimental part:
as §1, §2, §3

The test system of assay [3] is cholinomimetic effects induced by carbachol. The experiment in a line: In vivo anticholinergic action: inhibition of carbachol-induced cholinomimetic effects in mice. Conditions: for ED (1 C) / ED50: Mus musculus, ip; for ED (1 C): read-out: Body temperature: dose increasing by 1° C. the hypothermic effect induced by the cholinergic agent. Also noted: species or system CD1 male mice. As for the experimental part: The anticholinergic activity of the compounds was determined by assessing the capacity to inhibit the cholinomimetic effects induced by carbachol. Atropine sulphate was employed as a reference product.
CD1 male mice weighing 25 to 30 g were used. They were distributed in groups of 6 animals and treated intraperitoneally with scalar doses of the products or 0.25% Methocel for the controls. 12 animals were used for each dose. 30 minutes after administration of the compounds, the mice were injected subcutaneously with 1 mg/kg of carbachol dissolved in physiological saline.
Each animal was examined 30 minutes after the injection of carbachol to assess the presence of diarrhoea, salivation and eye watering; in addition, the body temperature was measured by means of a thermocouple inserted 1.5 cm into the rectum.
For each compound, we have determined and recorded in the following table the dose capable of inhibiting the appearance of the carbachol-induced cholinometric symptoms in 50% of the animals, and of increasing by 1° C. the hypothermic effect induced by the cholinergic agent.

The next assay has as its target Muscarinic receptor 2. Nature of the assay: Binding to muscarinic receptor 2 ([3H]quinuclidinyl benzylate). The following applies: 0.3 nM [3H]quinuclidinyl benzylate, rat brain, pH 7.5, 60 min, 25° C.; read-out: Affinity for M2 muscarinic receptor, IC50. How it is done: The preparation is performed from brains of male rats weighing 150 to 200 g (Iffa Credo).
The brains are ground (Teflon-glass) in 0.32M sucrose solution. The homogenate is centrifuged for 10 minutes at 1,000 g (0°-4° C.).
The supernatant obtained is collected and centrifuged at 30,000 g for 15 minutes (0°-4° C.).
The pellet is resuspended in 50 mM Tris buffer pH 7.5 and the new homogenate is centrifuged again at 30,000 g for 15 minutes (0°-4° C.).
After removal of the supernatant, the pellets may be used immediately or stored for up to 1 month at -30° C.
For an experiment, the pellets are first thawed, if necessary, at room temperature and resuspended using a Dounce in 50 mM Tris buffer pH 7.5. 2 ml aliquots are incubated for 60 minutes at 25° C. in the presence of 0.3 nM [^3 H]quinuclidinyl benzylate, either alone, or with the test product, or with 10^-5 M benzatropine to determine the non-specifically bound radioactivity.
At the end of the incubation period, the incubate tubes are cooled to 4° C. and filtered rapidly on Whatman GF/C filters. The filters are rinsed with 3×5 ml of 50 mM Tris buffer pH 7.5 and the measurements are then performed by liquid scintillation (Henry I. Yamamura, Solomon H. Snyder, Proc. Nat. Acad. Sc. (1974) 71, No. 5, 1725-1729).
(§4) The results are expressed as an IC50 (concentration needed to inhibit by 50% the specifically bound radioactivity).

Assay [4] concerns isolated guinea pig ileum, contractions induced by histamine. The experiment in a line: Antagonist action on histamine-induced contractions of isolated guinea pig ileum. The class given is cell-based. The following applies: Cavia porcellus; histamine 1×10^-5 M, contact time one minute, 37° C.; read-out: Antagonist to Histam., IC50. As for the experimental part:
as §1
as §2, with “The antagonist action was assessed on contractions induced by acetylchloine (1×10^-6 M), histamine (1×10^-5 M) and barium chloride (2×10^-4 M). Atropine, diphenhydramine and papaverine were employed as reference products.” left out
as §3

In the next assay the target is T1, Muscarinic receptor 1 (Rattus norvegicus, UniProt P08482).
T1 construct: cortices removed from the brains of male rats; tissue Iffa Credo (animals); host or cells: cerebral cortex of male rats weighing 150 to 200 g, homogenate
T1 sequence (P08482 1-460): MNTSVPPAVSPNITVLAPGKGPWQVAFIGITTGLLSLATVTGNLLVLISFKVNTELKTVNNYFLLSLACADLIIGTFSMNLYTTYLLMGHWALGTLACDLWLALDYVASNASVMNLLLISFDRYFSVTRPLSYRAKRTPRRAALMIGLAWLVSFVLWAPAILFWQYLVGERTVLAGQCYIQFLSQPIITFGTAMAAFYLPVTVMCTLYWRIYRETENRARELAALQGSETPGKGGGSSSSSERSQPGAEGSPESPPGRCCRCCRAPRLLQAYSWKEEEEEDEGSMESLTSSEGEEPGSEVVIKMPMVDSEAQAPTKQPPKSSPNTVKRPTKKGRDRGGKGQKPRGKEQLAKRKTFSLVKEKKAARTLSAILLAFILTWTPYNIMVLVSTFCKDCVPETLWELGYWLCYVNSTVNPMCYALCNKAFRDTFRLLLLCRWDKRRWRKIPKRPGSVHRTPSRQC
The experiment in a line: Binding to muscarinic receptor 1 ([3H]pirenzepine). The following applies: 0.25 nM [3H]pirenzepine, rat cortex homogenate, pH 7.4, 60 min, 25° C.; read-out: Affinity for M1 muscarinic receptor, IC50. As for the experimental part:
Preparation of this is carried out from cortices removed from the brains of male rats weighing 150 to 200 g (Iffa Credo), ground in a Polytron in a 10 mM Na/K buffer pH 7.4. After incubation (0.5 ml aliquots of homogenate) for 60 minutes at 25° C. in the presence of 0.25 nM [^3 H]pirenzepine, either alone, or with the test product, or with an excess of 10^-5 M pirenzepine (to determine the non-specifically bound radioactivity), the incubates are cooled and filtered.
The filtration is performed on Whatman GF/C filters prewashed in a 0.05% strength solution of polyethylenimine. The filters are rinsed with 3×5 ml of 10 mM Na/K phosphate buffer pH 7.4 and the measurements are then performed by liquid scintillation.
as §4

For assay [5], the system named is isolated guinea pig ileum, contractions induced by barium chloride. Nature of the assay: Antagonist action on barium chloride-induced contractions of isolated guinea pig ileum. The format is cell-based. Conditions: Cavia porcellus, read-out: Antagonist to BaCl2, IC50. How it is done:
as §1, §2, §3

[6] abbreviates: negative logarithm of the dose producing 50% of the maximum effect, 37° C.
Where [7] appears, read: acetylcholine 1×10^-6 M, contact time one minute, 37° C.
The mark [8] stands for this setting: 30 min before carbachol 1 mg/kg s.c., mice.
Setting [9] is: 30 min before carbachol 1 mg/kg s.c., mice, read-out: Dose inhibiting carbachol-induced diarrhoea in 50% of the animals.
[10] abbreviates: 30 min before carbachol 1 mg/kg s.c., mice, read-out: Dose inhibiting carbachol-induced eye watering in 50% of the animals.
Setting [11] is: 30 min before carbachol 1 mg/kg s.c., mice, read-out: Dose inhibiting carbachol-induced salivation in 50% of the animals.
Setting [12] is: barium chloride 2×10^-4 M, contact time one minute, 37° C.

Read-outs that look alike come from different tables or passages of the source.

`CCN(CC)c1ccc(S(=O)(=O)N2CCCC2=S)cc1` [Example 1, 1-[4-(Diethylamino)benzenesulphonyl]-2-pyrrolidinethione]: the EC50 in assay [1] (setting [6]) is more than 10000 nM. In addition, the IC50 (usually the concentration needed to halve the response being measured) in assay [2] (setting [7]) is 570 nM; at Muscarinic receptor 2, 2200 nM; in assay [4] it was more than 10000 nM; on Muscarinic receptor 1, 43 nM; in assay [5] (setting [12]), more than 10000 nM. In assay [3] (setting [8]), the ED (1 C) was more than 50 mg/kg. For the same molecule, the ED50 in assay [3] (setting [9]) was 5 mg/kg; in assay [3] (setting [10]), more than 50 mg/kg; in assay [3] (setting [11]) it was more than 50 mg/kg.

In the case of `O=S(=O)(c1ccc(N2CCCCCC2)cc1)N1CCCCC1=S` [Example 6, 1-[4-(1-Hexahydroazepinyl)benzenesulphonyl]-2-piperidinethione], the EC50 in assay [1] (setting [6]) was more than 10000 nM. Further, the IC50 in assay [2] (setting [7]) is 190 nM; at Muscarinic receptor 2 it was 230 nM; on Muscarinic receptor 1 it was 12 nM; in assay [5] (setting [12]), more than 10000 nM. Moreover, in assay [3] (setting [8]), the ED (1 C) was more than 50 mg/kg. Besides, the values for the ED50 in assay [3] (setting [9]), in assay [3] (setting [10]) and in assay [3] (setting [11]) were 2 mg/kg, more than 50 mg/kg and 40 mg/kg, respectively.

Consider `COc1ccc(Cc2nccc3cc(OC)c(OC)cc23)cc1OC` [Papaverine, papaverine, reference compound], for which the IC50 in assay [5] came to 45000 nM.

On to `CCN(CC)c1ccc(S(=O)(=O)N2CCCCC2=S)cc1` [Example 2, 1-[4-(diethylamino)benzenesulphonyl]-2-piperidinethione], for which, in assay [1] (setting [6]), the EC50 was more than 10000 nM. The IC50 is 340 nM in assay [2] (setting [7]); 1900 nM at Muscarinic receptor 2; more than 10000 nM in assay [4]; 73 nM at Muscarinic receptor 1; more than 10000 nM in assay [5] (setting [12]). The ED (1 C) in assay [3] (setting [8]) is more than 50 mg/kg. In addition, the ED50 in assay [3] (setting [9]) is 8 mg/kg; in assay [3] (setting [10]) it was more than 50 mg/kg; in assay [3] (setting [11]) it was more than 50 mg/kg.

Consider `COC(=O)C1=CCCN(C)C1` [Arecoline, arecoline, reference compound], for which, in assay [1], the EC50 was 209 nM.

In the case of `CN1[C@@H]2CC[C@H]1C[C@@H](OC(=O)C(CO)c1ccccc1)C2` (stereo partly shown) [Atropine, reference compound], the IC50 in assay [2] turned out to be 9.5 nM. Besides, the results for the ED50 in assay [3] (read-out: Dose inhibiting carbachol-induced diarrhoea in 50% of the animals), in assay [3] (read-out: Dose inhibiting carbachol-induced eye watering in 50% of the animals) and in assay [3] (read-out: Dose inhibiting carbachol-induced salivation in 50% of the animals) were 0.04 mg/kg, 0.05 mg/kg and 0.06 mg/kg, respectively.

Consider `C[N+](C)(C)CCOC(N)=O` [Carbachol, carbachol, reference compound], for which, in assay [3] (1 mg/kg s.c., control mice), the “cholinomimetic symptoms induced by carbachol” value is “induced diarrhoea, salivation and eye watering in all the control mice”; the “decrease in rectal temperature induced by carbachol” value is “approximately 2.5 °C”.

For the molecule `O=S(=O)(c1ccc(N2CCCCC2)cc1)N1CCCCC1=S` [Example 4, 1-[4-(1-Piperidyl)benzenesulphonyl]-2-piperidinethione], the EC50 in assay [1] (setting [6]) is more than 10000 nM. Moreover, the IC50 in assay [2] (setting [7]) is 3600 nM; on Muscarinic receptor 2, 580 nM; at Muscarinic receptor 1, 30 nM; in assay [5] (setting [12]) it was more than 10000 nM. For the same molecule, the ED (1 C) in assay [3] (setting [8]) is more than 50 mg/kg. Also, the ED50 in assay [3] (setting [9]) was 7 mg/kg; in assay [3] (setting [10]) it was more than 50 mg/kg; in assay [3] (setting [11]), more than 50 mg/kg.

For the molecule `O=S(=O)(c1ccc(N2CCCCCC2)cc1)N1CCCC1=S` [Example 5, 1-[4-(1-Hexahydroazepinyl)benzenesulphonyl]-2-pyrrolidinethione], the EC50 in assay [1] (setting [6]) is more than 10000 nM. Also, the IC50 in assay [2] (setting [7]) was 280 nM; on Muscarinic receptor 2, 120 nM; at Muscarinic receptor 1 it was 10 nM; in assay [5] (setting [12]), more than 10000 nM. In assay [3] (setting [8]), the ED (1 C) was 12 mg/kg. Besides, the ED50 in assay [3] (setting [9]) is 0.6 mg/kg; in assay [3] (setting [10]), more than 50 mg/kg; in assay [3] (setting [11]) it was 15 mg/kg.

In the case of `O=S(=O)(c1ccc(N2CCCCC2)cc1)N1CCCC1=S` [Example 3, 1-[4-(1-piperidyl)benzenesulphonyl]-2-pyrrolidinethione], the EC50 in assay [1] (setting [6]) is more than 10000 nM. For the same molecule, the concentration for half-maximal inhibition (IC50) was 2600 nM in assay [2] (setting [7]), 650 nM on Muscarinic receptor 2, 25 nM on Muscarinic receptor 1 and more than 10000 nM in assay [5] (setting [12]). Further, in assay [3] (setting [8]), the ED (1 C) was more than 50 mg/kg. Moreover, the ED50 in assay [3] (setting [9]) was 3 mg/kg; in assay [3] (setting [10]), more than 50 mg/kg; in assay [3] (setting [11]), more than 50 mg/kg.
